US10458911B2, “Method for searching candidate material for anti-cancer drug using localized surface plasmon resonance” (KOREA UNIVERSITY RESEARCH AND BUSINESS FOUNDATION, priority 2015, dated 2019)

Key:
[1] = molecular target: T1, STAT3 protein extracted from MCF-7 cells (Homo sapiens, UniProt P40763); assay: Single nanoplasmonic biosensor (LSPR shift), dimerization step with STAT3 extracted from MCF-7 cells treated with STA-21; assay type: cell-based
T1 construct: Phosphorylated STAT3 protein (10 μg mL^−1) extracted from Michigan Cancer Foundation-7 (MCF-7) cells was used; endogenous in cells; host or cells: MCF-7
T1 sequence (P40763 2-770 limits assumed): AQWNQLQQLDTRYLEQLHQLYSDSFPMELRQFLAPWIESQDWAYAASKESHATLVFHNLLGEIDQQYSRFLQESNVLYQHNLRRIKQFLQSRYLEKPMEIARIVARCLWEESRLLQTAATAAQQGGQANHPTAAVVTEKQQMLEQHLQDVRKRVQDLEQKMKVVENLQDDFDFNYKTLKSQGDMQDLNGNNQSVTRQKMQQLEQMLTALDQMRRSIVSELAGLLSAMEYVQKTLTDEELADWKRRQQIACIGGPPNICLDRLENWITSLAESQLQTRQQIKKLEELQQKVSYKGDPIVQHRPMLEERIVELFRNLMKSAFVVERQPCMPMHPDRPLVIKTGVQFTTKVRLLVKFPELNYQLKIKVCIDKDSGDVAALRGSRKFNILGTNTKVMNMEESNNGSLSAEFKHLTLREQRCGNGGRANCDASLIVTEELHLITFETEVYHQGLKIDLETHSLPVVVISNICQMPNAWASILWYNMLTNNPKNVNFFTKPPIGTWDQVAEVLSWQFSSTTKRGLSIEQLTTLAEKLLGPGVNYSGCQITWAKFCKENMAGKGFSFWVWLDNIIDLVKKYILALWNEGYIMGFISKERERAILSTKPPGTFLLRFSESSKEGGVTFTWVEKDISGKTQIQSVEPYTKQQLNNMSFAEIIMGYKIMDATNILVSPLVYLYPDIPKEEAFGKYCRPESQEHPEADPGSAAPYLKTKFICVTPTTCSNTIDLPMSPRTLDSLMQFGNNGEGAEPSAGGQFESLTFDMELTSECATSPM
Description: Subsequently, the phosphorylation and the dimerization of STAT3 were conducted as follows. In the first step, after ˜50 nm AuNPs were immobilized onto a coverslip slide, all unbound AuNPs and contaminants were removed, and the surface of the amino-modified AuNPs was cleaned by injecting nuclease-free water for 1 h. In the second step, after STAT3 protein was conjugated to the AuNPs, 300 μL, of the STAT3 solution ([…] in 50 mM Tris-HCl buffer, pH 7.4, containing 150 mM NaCl and 25% glycerol) containing STAT3 protein (10 μg mL^−1) was injected into the immobilized AuNPs and incubated overnight. […]
(§1) The changes in the LSPR spectra of the single amino-modified AuNPs in response to STAT3 protein conjugation, STAT3 phosphorylation, dimerization or inhibition of STAT3 dimerization were recorded. […] The wavelength shift (Δλmax) was calculated using the following formula: λmax (after reaction)−λmax (before reaction).
The MCF-7 cells, human breast tumor cell lines, were cultured in Dulbecco's modified Eagle's medium (DMEM, Thermo Scientific, USA) containing 10% (v/v) fetal bovine serum (FBS, Thermo Scientific, USA) and 3% penicillin/streptomycin (Thermo Scientific, USA) at 37° C. in a humidified atmosphere containing 5% CO2. The inocula of cells were determined using a hemacytometer with a vital dye, trypan blue. […]

STAT3 protein [2] = molecular target: T2, STAT3 protein (Homo sapiens, UniProt P40763); assay: Native polyacrylamide gel electrophoresis of STAT3 dimerization and its inhibition; assay type: biochemical; details: lane 4, with STA-21; 167 kDa dimer without inhibitor (lane 3); FIG. 5A
T2 sequence (P40763 whole entry): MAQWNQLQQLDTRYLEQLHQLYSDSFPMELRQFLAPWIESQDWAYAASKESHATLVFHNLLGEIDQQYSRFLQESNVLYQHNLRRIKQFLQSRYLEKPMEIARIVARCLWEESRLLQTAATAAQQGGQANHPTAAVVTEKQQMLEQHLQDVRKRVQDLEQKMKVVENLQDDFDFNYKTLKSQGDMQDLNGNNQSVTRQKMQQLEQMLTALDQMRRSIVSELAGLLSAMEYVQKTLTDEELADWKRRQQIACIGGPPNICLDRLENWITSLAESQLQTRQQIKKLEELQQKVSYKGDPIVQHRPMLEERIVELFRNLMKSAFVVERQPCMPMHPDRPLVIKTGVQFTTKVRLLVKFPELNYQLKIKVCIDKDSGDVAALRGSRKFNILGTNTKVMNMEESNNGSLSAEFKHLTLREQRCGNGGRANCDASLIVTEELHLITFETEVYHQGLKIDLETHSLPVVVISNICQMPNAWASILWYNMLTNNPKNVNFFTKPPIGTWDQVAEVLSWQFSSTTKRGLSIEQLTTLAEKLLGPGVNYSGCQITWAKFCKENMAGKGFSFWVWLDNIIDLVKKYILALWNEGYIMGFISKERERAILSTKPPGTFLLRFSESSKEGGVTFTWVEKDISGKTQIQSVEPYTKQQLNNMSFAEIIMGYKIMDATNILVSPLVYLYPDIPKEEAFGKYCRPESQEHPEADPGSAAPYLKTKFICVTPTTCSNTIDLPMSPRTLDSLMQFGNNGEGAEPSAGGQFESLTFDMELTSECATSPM
From the text: Analysis of STAT3 dimerization and inhibition of STAT3 dimerization was confirmed by native polyacrylamide gel electrophoresis on 6% native gels using a standard protocol (Y. Jv, B. Li and R. Cao, Chem. Commun., 2010, 46, 80178019). The samples which formed the dimerization and inhibited the dimerization were loaded into the 6% native gel running at a voltage of 10 V cm^−1.

STAT3 protein [3] = molecular target: T2, STAT3 protein; assay: Single nanoplasmonic biosensor (LSPR shift), inhibition of STAT3 dimerization with recombinant STAT3; assay type: biochemical; design: purchased Sigma Aldrich (Korea)
Description: Individual amino-modified AuNPs, ˜50 nm AuNPs, were immobilized onto a glutaraldehyde coated coverslip slide (22×40×0.1 mm) by dropping 10 μL of the dilute amino-modified AuNP solution (FIG. 2). The glass slide was mounted to an RC-30HV closed-bath imaging chamber (Warner Instruments, USA) to visualize the AuNPs after the addition of adsorbates and reactants. The imaging chamber (Warner Instruments, USA) was subsequently inserted onto the holder of the darkfield microscope (Eclipse TE2000-U, Nikon, Japan), and the fluidic flow was set at 100 μL min^−1 by connection to a syringe pump (Harvard Apparatus).
Subsequently, the phosphorylation and the dimerization of STAT3 were conducted as follows. In the first step, after ˜50 nm AuNPs were immobilized onto a coverslip slide, all unbound AuNPs and contaminants were removed, and the surface of the amino-modified AuNPs was cleaned by injecting nuclease-free water for 1 h. […]
as §1

In the case of C[C@@H]1CC(=O)c2c(ccc3c2C(=O)c2cccc(O)c2C3=O)C1 [STA-21], the STAT3 dimer formation ([1]; STAT3 from MCF-7 cells treated with STA-21) is reported as “did not form a STAT3 dimer”, the “red shift of the LSPR λmax for the dimerization step in the presence of inhibitor” value ([1]; STAT3 from MCF-7 cells treated with STA-21 for 24 h, 10.00 nm in the absence, FIG. 4C) is reported as 3.34 nm and the “STAT3 species observed by Native PAGE” value (STAT3 protein [2]) is reported as 90 kDa monomer. The “red shift of the LSPR λmax in the dimerization step in the presence of inhibitor” value (STAT3 protein [3]; STA-21 1 μM, recombinant STAT3 protein, 9.00 nm in the absence, FIG. 4C) was 2.65 nm and the STAT3 dimerization inhibited (STAT3 protein [3]; STA-21 at 10^3 nM, recombinant STAT3) was 100%.
